# Measured values published in patent US10513494B2, “Methods, compounds, and compositions for anesthesia” (THE BOARD OF TRUSTEES OF THE LELAND STANFORD JUNIOR …, priority 2014, dated 2019).
# pEC50: −log10 of the molar value.
# Tested on: native GABA-A receptors
# Assay: Electrophysiology in hippocampal brain slices (paired pulse inhibition, CA1)
# Format: cell-based
# Settings: rat hippocampal slice
# Description: Brain slices were prepared from male Sprague-Dawley rats that had been deeply anesthetized with isoflurane. The brain was quickly removed and placed in ice-cold artificial cerebrospinal fluid (ACSF) that was saturated with 95% O2 and 5% CO2 (carbogen) to achieve a pH of 7.4. The ACSF was composed of the following ions dissolved in spectrophotometry grade water (EMD Chemicals Inc., Billerica, Mass.) and stated in millimolar concentrations: Na 151.25, Cl 131.5, HCO3 26, K 2.5, Ca 2, Mg 2, SO4 2, H2PO4 1.25, and glucose 10. Coronal brain slices were prepared using a vibratome (Model 1500, Technical Products International Inc., St. Louis, Mo.) and 400-μm-thick slices were hemisected and placed on cellulose filter papers. They were stored at a gas (carbogen)-liquid (ACSF) interface in a holding chamber for at least 1 hour before use. […]
# Evoked field potentials were measured using thin-walled glass pipettes (1.0 ID, 1.5 OD; Garner Glass Co., Claremont, Calif.) filled with ACSF. […]
# Recorded signals were conditioned using an Axoclamp 2B preamplifier (Axon Instruments, Sunnyvale, Calif.) with a bandpass from DC to 30 kHz and gain of ×10. […] Responses were measured and plotted in real time to ensure that stable baselines (<±2.0% variation) were recorded for at least 20 minutes before the experiments began. […]
row,Structure (SMILES),concentration at which paired pulse inhibition was noted [µM]
1,CCOC(=O)c1cc(-c2ccc(Cl)cc2)n(-c2ccccc2)c1C [Compound B],100

# Tested on: American bullfrog Rana catesbeiana tadpoles
# Assay: Loss of righting reflex (LORR) in tadpoles
# Format: in vivo
# Settings: Aquarana catesbeiana, water bath exposure
# Description: Anesthesia is defined as the combination of a lack of movement to a given stimulus, lack of awareness, amnesia and analgesia. The surrogate of such is manifest in the tadpole as the loss of righting reflex (LORR). Early prelimb-bud stage American bullfrog Rana catesbeiana tadpoles (5 per 50 ml beaker) were placed in room temperature oxygenated water buffered with 2.5 mM Tris HCl buffer (pH=7.4) and containing a concentration of test compound ranging from 0.11 uM-1 mM. Tadpoles were manually tipped every 5 min with a glass rod or stream of water until their righting reflex response stabilized or 120 minutes elapses. […] At the end of each study, tadpoles were transferred to fresh water to assess whether the anesthetic action was reversible.
row,Structure (SMILES),EC50 [µM]
1,Cc1cc(C(=O)OCc2c(Cl)cccc2Cl)c(C)n1-c1ccccc1 [C],~5
2,CCOC(=O)c1cc(-c2ccc(OC)cc2)n(-c2ccc(Cl)cc2)c1C [Compound A],1.5
3,CCOC(=O)c1cc(-c2ccc(Cl)cc2)n(-c2ccccc2)c1C [Compound B],0.53
4,Cc1cc(C(=O)OCc2ccc(Cl)cc2Cl)c(C)n1-c1ccccc1 [D],~20
5,Cc1cc(C(=O)OCc2ccc(Cl)cc2)c(C)n1-c1ccc(F)cc1 [E],~40
6,COC(=O)c1cc(-c2ccc(C)c(C)c2)n(-c2ccc(Br)cc2)c1C [F],~20
7,COC(=O)c1cc(-c2ccc(C)c(C)c2)n(-c2ccc(F)cc2Br)c1C [G],~3
8,COC(=O)c1cc(-c2ccc(C)c(C)c2)n(-c2ccc(Cl)c(Cl)c2)c1C [H],> 40
9,COC(=O)c1cc(-c2ccc(Br)cc2)n(-c2cccc(Cl)c2C)c1C [J],> 40
10,COC(=O)c1cc(-c2ccc(Br)cc2)n(-c2ccc(Br)cc2)c1C [K],~40
11,CCOC(=O)c1cc(C)n(-c2cccc(Cl)c2Cl)c1-c1ccccc1 [M],~20

# Tested on: GABAaR
# Assay: not given
# Settings: known literature value; read-out: EC50 for GABAaR potentiation; cited from earlier work
row,Structure (SMILES),pEC50
1,CCOC(=O)c1cn(-c2ccc(Cl)cc2Cl)c(-c2ccc(Br)cc2)n1 [Compound 1n],6.72
2,Oc1ccccc1 [phenol],3.04

# Tested on: American bullfrog Rana catesbeiana tadpoles
# Assay: Loss of righting reflex (LORR) in tadpoles
# Format: in vivo
# Settings: Aquarana catesbeiana; text refers to Table 2; read-out: EC50 for GABAaR potentiation in tadpoles
row,Structure (SMILES),pEC50
1,CCOC(=O)c1cc(-c2ccc(OC)cc2)n(-c2ccc(Cl)cc2)c1C [Compound A],~5.82
